# Measured values published in PubChem BioAssay (NCI).
#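 Assay format: 96-well plates, 48-hour exposure. Abbreviation: GI50, concentration required for 50% inhibition of growth. At the TGI there is no net growth.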
# What was measured:
# Experiment in all cases: NCI-60 cell line screen, 48 h
# HCT-15 colon = test system: HCT-15 colon
# HT29 colon = test system: HT29 colon
# OVCAR-5 ovarian = test system: OVCAR-5 ovarian
# OVCAR-3 ovarian = test system: OVCAR-3 ovarian
# TK-10 renal = test system: TK-10 renal
# CAKI-1 renal = test system: CAKI-1 renal
# MCF7 breast = test system: MCF7 breast
# NCI-H23 lung = test system: NCI-H23 lung
# SNB-75 CNS = test system: SNB-75 CNS
# DMS 114 small cell lung = test system: DMS 114 small cell lung
smiles,measurement,setting,value
O=C1OC(c2ccccc2Br)=N/C1=C/c1ccccc1,TGI,HCT-15 colon,> 100 µM
same,TGI,HT29 colon,> 100 µM
same,TGI,OVCAR-5 ovarian,> 100 µM
same,TGI,OVCAR-3 ovarian,35.4 µM
same,TGI,TK-10 renal,> 100 µM
same,TGI,CAKI-1 renal,> 100 µM
same,TGI,MCF7 breast,> 100 µM
same,TGI,NCI-H23 lung,> 100 µM
same,TGI,SNB-75 CNS,> 100 µM
O=C1CCC2COc3ccc(O)c1c32 (stereo unspecified),TGI,DMS 114 small cell lung,> 100 µM
same,TGI,HCT-15 colon,> 100 µM
same,TGI,HT29 colon,> 100 µM
same,TGI,OVCAR-3 ovarian,> 100 µM
same,TGI,TK-10 renal,> 100 µM
same,TGI,CAKI-1 renal,> 100 µM
same,TGI,NCI-H23 lung,> 100 µM
same,TGI,SNB-75 CNS,> 100 µM
O=c1oc2ccccc2n1P(=O)(Oc1ccc(Cl)cc1)n1c(=O)oc2ccccc21,TGI,DMS 114 small cell lung,> 100 µM
same,TGI,HT29 colon,> 100 µM
same,TGI,OVCAR-5 ovarian,> 100 µM
same,TGI,OVCAR-3 ovarian,> 100 µM
same,TGI,TK-10 renal,> 100 µM
same,TGI,CAKI-1 renal,> 100 µM
same,TGI,NCI-H23 lung,> 100 µM
same,TGI,SNB-75 CNS,> 100 µM
COc1nc(NC2OC(CO)C(O)C(O)C2O)c(N)c(=O)[nH]1 (stereo unspecified),TGI,DMS 114 small cell lung,> 100 µM
same,TGI,HCT-15 colon,> 100 µM
same,TGI,HT29 colon,> 100 µM
same,TGI,OVCAR-5 ovarian,> 100 µM
same,TGI,OVCAR-3 ovarian,> 100 µM
same,TGI,MCF7 breast,> 100 µM
same,TGI,NCI-H23 lung,> 100 µM
same,TGI,SNB-75 CNS,> 100 µM
Nc1ncnc2c1ccn2-c1cccc(NC(=O)c2ccc(N3CCOCC3)c(C(F)(F)F)c2)c1,GI50,HCT-15 colon,2.74 µM
same,TGI,HCT-15 colon,10.4 µM
same,GI50,HT29 colon,3 µM
same,TGI,HT29 colon,12.3 µM
same,GI50,OVCAR-5 ovarian,3 µM
same,TGI,OVCAR-5 ovarian,21.1 µM
same,GI50,OVCAR-3 ovarian,3.04 µM
same,TGI,OVCAR-3 ovarian,11.4 µM
same,GI50,TK-10 renal,1.92 µM
same,TGI,TK-10 renal,6.04 µM
same,GI50,CAKI-1 renal,2.69 µM
same,TGI,CAKI-1 renal,8.73 µM
same,GI50,MCF7 breast,3.44 µM
same,TGI,MCF7 breast,14.2 µM
same,GI50,NCI-H23 lung,2.95 µM
same,TGI,NCI-H23 lung,13.6 µM
same,GI50,SNB-75 CNS,1.31 µM
same,TGI,SNB-75 CNS,9.02 µM
COC(=O)Cc1c(C2C(CC(=O)OC)c3ccccc3N2C2OC(CO)C(O)C(O)C2O)[nH]c2ccccc12 (stereo unspecified),TGI,HCT-15 colon,> 100 µM
same,TGI,HT29 colon,> 100 µM
same,TGI,OVCAR-5 ovarian,> 100 µM
same,TGI,OVCAR-3 ovarian,> 100 µM
same,TGI,TK-10 renal,> 100 µM
same,TGI,CAKI-1 renal,> 100 µM
same,TGI,NCI-H23 lung,> 100 µM
same,TGI,SNB-75 CNS,> 100 µM
CC(C)(C)CI,TGI,DMS 114 small cell lung,48.3 µM
same,TGI,HCT-15 colon,> 100 µM
same,TGI,HT29 colon,> 10 µM
same,TGI,OVCAR-5 ovarian,> 100 µM
same,TGI,OVCAR-3 ovarian,35.4 µM
same,TGI,TK-10 renal,> 100 µM
same,TGI,NCI-H23 lung,> 100 µM
same,TGI,SNB-75 CNS,67.6 µM
CC1OC(CO)(n2cnc3c(N)ncnc32)C(O)C1O (stereo unspecified),TGI,DMS 114 small cell lung,> 100 µM
same,TGI,HCT-15 colon,> 100 µM
same,TGI,HT29 colon,> 100 µM
same,TGI,OVCAR-5 ovarian,> 100 µM
same,TGI,OVCAR-3 ovarian,> 100 µM
same,TGI,CAKI-1 renal,> 100 µM
same,TGI,MCF7 breast,> 100 µM
same,TGI,NCI-H23 lung,> 100 µM
same,TGI,SNB-75 CNS,> 100 µM
CCCCCCCCCCCCCCCCCCOc1ccccc1COP(=O)(O)OOCC[N+](C)(C)C,GI50,HCT-15 colon,1.64 µM
same,TGI,HCT-15 colon,7.87 µM
same,GI50,HT29 colon,1.21 µM
same,TGI,HT29 colon,5.38 µM
same,GI50,OVCAR-5 ovarian,1.51 µM
same,TGI,OVCAR-5 ovarian,6.86 µM
same,GI50,OVCAR-3 ovarian,0.993 µM
same,TGI,OVCAR-3 ovarian,2.56 µM
same,GI50,TK-10 renal,1.35 µM
same,TGI,TK-10 renal,4.49 µM
same,GI50,CAKI-1 renal,1.2 µM
same,TGI,CAKI-1 renal,4.14 µM
same,GI50,MCF7 breast,1.14 µM
same,TGI,MCF7 breast,3.32 µM
same,GI50,NCI-H23 lung,0.804 µM
same,TGI,NCI-H23 lung,4.27 µM
same,GI50,SNB-75 CNS,0.96 µM
same,TGI,SNB-75 CNS,3.51 µM
C#CCNC(=O)CC[C@@H](C)[C@H]1CC[C@H]2[C@@H]3CC[C@@H]4CC(=O)CC[C@]4(C)[C@H]3CC[C@]12C,GI50,HCT-15 colon,12.1 µM
same,TGI,HCT-15 colon,36.3 µM
same,GI50,HT29 colon,12.7 µM
same,TGI,HT29 colon,34.5 µM
same,GI50,OVCAR-5 ovarian,22.1 µM
same,TGI,OVCAR-5 ovarian,47.1 µM
same,GI50,OVCAR-3 ovarian,13.8 µM
same,TGI,OVCAR-3 ovarian,36.1 µM
same,GI50,TK-10 renal,18 µM
same,TGI,TK-10 renal,44.5 µM
same,GI50,CAKI-1 renal,12.8 µM
same,TGI,CAKI-1 renal,29.2 µM
same,GI50,MCF7 breast,12 µM
same,TGI,MCF7 breast,52.7 µM
same,GI50,NCI-H23 lung,19.6 µM
same,TGI,NCI-H23 lung,75.7 µM
same,GI50,SNB-75 CNS,10.9 µM
same,TGI,SNB-75 CNS,33.5 µM
NC(CSCSCC(N)C(=O)O)C(=O)O (stereo unspecified),TGI,DMS 114 small cell lung,> 225 µM
same,TGI,HCT-15 colon,> 225 µM
same,TGI,HT29 colon,> 225 µM
same,TGI,OVCAR-5 ovarian,> 225 µM
same,TGI,OVCAR-3 ovarian,> 225 µM
same,TGI,CAKI-1 renal,> 225 µM
same,TGI,MCF7 breast,> 225 µM
same,TGI,NCI-H23 lung,> 225 µM
same,TGI,SNB-75 CNS,> 225 µM
